Tests used:
Assay type in all cases: functional
UO-31 = assay: Growth inhibition of human UO31 cells at 10 uM; conditions: read-out: GI
RXF 393 = assay: Growth inhibition of human RXF393 cells at 10 uM; conditions: read-out: GI
TK-10 [1] = assay: Growth inhibition of human TK10 cells at 10 uM; conditions: read-out: GI
[2] = Growth inhibition of human NCI60 cells
K562 = assay: Growth inhibition of human K562 cells; conditions: for CC50: read-out: LC50 (the source's name)
HOP-92 = assay: Growth inhibition of human HOP92 cells; conditions: for CC50: read-out: LC50 (the source's name)
NCI-H226 = assay: Growth inhibition of human NCI-H226 cells
NCI-H460 = assay: Growth inhibition of human NCI-H460 cells
COLO 205 = assay: Growth inhibition of human COLO205 cells; conditions: for CC50: read-out: LC50 (the source's name)
SF-295 = assay: Growth inhibition of human SF295 cells; conditions: for CC50: read-out: LC50 (the source's name)
SK-MEL-2 = assay: Growth inhibition of human SK-MEL-2 cells; conditions: for CC50: read-out: LC50 (the source's name)
UACC-62 = assay: Growth inhibition of human UACC62 cells
IGROV-1 = assay: Growth inhibition of human IGROV1 cells; conditions: for CC50: read-out: LC50 (the source's name)
OVCAR-4 = assay: Growth inhibition of human OVCAR4 cells; conditions: for CC50: read-out: LC50 (the source's name)
OVCAR-5 = assay: Growth inhibition of human OVCAR5 cells; conditions: for CC50: read-out: LC50 (the source's name)
A498 = assay: Growth inhibition of human A498 cells; conditions: for CC50: read-out: LC50 (the source's name)
CAKI-1 = assay: Growth inhibition of human Caki1 cells
TK-10 [3] = assay: Growth inhibition of human TK10 cells; conditions: for CC50: read-out: LC50 (the source's name)
T47D = assay: Growth inhibition of human T47D cells; conditions: for CC50: read-out: LC50 (the source's name)
MDA-MB-468 = assay: Growth inhibition of human MDA-MB-468 cells; conditions: for CC50: read-out: LC50 (the source's name)

## O=C1NC(=O)C(=Cc2c[nH]c3ccccc23)C(=O)N1
UO-31
  inhibition of growth at 10 µM: 39%

## Cc1ccc(S(=O)(=O)n2cc(C=C3C(=O)N(C)C(=O)N(C)C3=O)c3ccccc32)cc1
UO-31
  inhibition of growth at 10 µM: 41%
RXF 393
  inhibition of growth at 10 µM: 52%

## O=C1NC(=O)C(=Cc2cn(C(=O)c3ccccc3)c3ccccc23)C(=O)N1
UO-31
  inhibition of growth at 10 µM: 36%
RXF 393
  inhibition of growth at 10 µM: 55%

## O=C1NC(=O)C(=Cc2cn(Cc3ccccc3)c3ccccc23)C(=O)N1
TK-10 [1]
  inhibition of growth at 10 µM: 71%
UO-31
  inhibition of growth at 10 µM: 29%
[2]
  GI50: 7.5 µM
K562
  GI50: 3.1 µM
  TGI: 23 µM
  CC50: > 100 µM
HOP-92
  GI50: 1.5 µM
  TGI: 15 µM
  CC50: 58.8 µM
NCI-H226
  GI50: 5.4 µM
  LC50: > 100 µM
  TGI: 28 µM
NCI-H460
  GI50: 0.3 µM
  LC50: 63 µM
  TGI: 16.5 µM
COLO 205
  GI50: 1.4 µM
  TGI: 10.9 µM
  CC50: 41.6 µM
SF-295
  GI50: 3.3 µM
  TGI: 70.7 µM
  CC50: > 100 µM
SK-MEL-2
  GI50: 2.9 µM
  TGI: 23.4 µM
  CC50: > 100 µM
UACC-62
  GI50: 1.6 µM
  LC50: > 100 µM
  TGI: 16.5 µM
IGROV-1
  GI50: 0.48 µM
  TGI: 10.4 µM
  CC50: 63 µM
OVCAR-4
  GI50: 2 µM
  TGI: 44 µM
  CC50: > 100 µM
OVCAR-5
  GI50: 0.3 µM
  TGI: 3.8 µM
  CC50: 39.8 µM
A498
  GI50: 0.03 µM
  TGI: 0.26 µM
  CC50: 1.09 µM
CAKI-1
  GI50: 4.6 µM
  LC50: 93 µM
  TGI: 25.7 µM
TK-10 [3]
  GI50: 2 µM
  TGI: 8.3 µM
  CC50: > 100 µM
T47D
  GI50: 4.5 µM
  TGI: 22.3 µM
  CC50: 95 µM
MDA-MB-468
  GI50: 0.1 µM
  TGI: 0.38 µM
  CC50: > 100 µM

## O=C1NC(=O)C(=Cc2cn(C(=O)c3ccc(Cl)cc3)c3ccccc23)C(=O)N1
UO-31
  inhibition of growth at 10 µM: 22%

## CN1C(=O)C(=Cc2c[nH]c3ccccc23)C(=O)N(C)C1=O
UO-31
  inhibition of growth at 10 µM: 33%

## CN1C(=O)C(=Cc2cn(C(=O)c3ccc(Cl)cc3)c3ccccc23)C(=O)N(C)C1=O
RXF 393
  inhibition of growth at 10 µM: 33%

## CN1C(=O)C(=Cc2cn(Cc3ccccc3)c3ccccc23)C(=O)N(C)C1=O
TK-10 [1]
  inhibition of growth at 10 µM: 95%
UO-31
  inhibition of growth at 10 µM: 36%
[2]
  GI50: 13.8 µM
K562
  GI50: 4.3 µM
  TGI: > 100 µM
  CC50: > 100 µM
HOP-92
  GI50: 8.3 µM
  TGI: 50 µM
  CC50: > 100 µM
NCI-H226
  GI50: 3.4 µM
  LC50: > 100 µM
  TGI: 27 µM
NCI-H460
  GI50: 4.1 µM
  LC50: > 100 µM
  TGI: > 100 µM
COLO 205
  GI50: 0.7 µM
  TGI: 9.1 µM
  CC50: > 100 µM
SF-295
  GI50: 1.1 µM
  TGI: > 100 µM
  CC50: > 100 µM
SK-MEL-2
  GI50: 3 µM
  TGI: 45.7 µM
  CC50: > 100 µM
UACC-62
  GI50: 1 µM
  LC50: > 100 µM
  TGI: 12.5 µM
IGROV-1
  GI50: 0.06 µM
  TGI: 0.26 µM
  CC50: 0.85 µM
OVCAR-4
  GI50: 6.1 µM
  TGI: > 100 µM
  CC50: > 100 µM
OVCAR-5
  GI50: 0.1 µM
  TGI: 0.67 µM
  CC50: > 100 µM
A498
  GI50: 0.2 µM
  TGI: 0.64 µM
  CC50: 2.29 µM
CAKI-1
  GI50: 0.5 µM
  LC50: > 100 µM
  TGI: 6.4 µM
TK-10 [3]
  GI50: 3.1 µM
  TGI: 57.5 µM
  CC50: > 100 µM
T47D
  GI50: 5 µM
  TGI: > 100 µM
  CC50: > 100 µM
MDA-MB-468
  GI50: 0.02 µM
  TGI: 0.06 µM
  CC50: 0.69 µM
RXF 393
  inhibition of growth at 10 µM: 43%

## Cc1ccc(S(=O)(=O)n2cc(C=C3C(=O)NC(=O)NC3=O)c3ccccc32)cc1
UO-31
  inhibition of growth at 10 µM: 32%

## CN1C(=O)C(=Cc2cn(C(=O)c3ccccc3)c3ccccc23)C(=O)N(C)C1=O
UO-31
  inhibition of growth at 10 µM: 36%
RXF 393
  inhibition of growth at 10 µM: 55%

## O=c1[nH]cc(F)c(=O)[nH]1 [FLUOROURACIL]
[2]
  GI50: 17.7 µM

## COc1ccc2c(c1)c(CC(=O)O)c(C)n2C(=O)c1ccc(Cl)cc1 [INDOMETHACIN]
[2]
  GI50: 64.3 µM

Source: ChEMBL document CHEMBL1136890, “Design, synthesis and anticancer activities of hybrids of indole and barbituric acids--identification of highly promising leads” (2009)
